From patent US9062078B2, “Substituted 7-azabicyles and their use as orexin receptor modulators” (priority 2013, dated 2015) come the findings set out here.

Read-outs that look alike come from different tables or passages of the source.

The term Ki denotes the equilibrium dissociation constant of an inhibitor or competing ligand from its target.

Assay [1] addresses human orexin 2 receptor (Homo sapiens (Human), UniProt O43614). The experiment in a line: Human orexin 2 receptor radioligand binding (competitive, [3H]-EMPA, HEK293 cell preparations).
Assay [2] addresses human orexin 1 receptor (Homo sapiens (Human), UniProt O43613). The experiment in a line: Human orexin 1 receptor radioligand binding (competitive, [3H]-SB674042, CHO cell preparations).
The mark [3] stands for this setting: human orexin 2 receptor, [3H]-EMPA competition binding, read-out: hOX2 Ki (nm).
The mark [4] stands for this setting: human orexin 1 receptor, [3H]-SB674042 competition binding, read-out: hOX1 Ki (nm).

human orexin 2 receptor, sequence (O43614 whole entry): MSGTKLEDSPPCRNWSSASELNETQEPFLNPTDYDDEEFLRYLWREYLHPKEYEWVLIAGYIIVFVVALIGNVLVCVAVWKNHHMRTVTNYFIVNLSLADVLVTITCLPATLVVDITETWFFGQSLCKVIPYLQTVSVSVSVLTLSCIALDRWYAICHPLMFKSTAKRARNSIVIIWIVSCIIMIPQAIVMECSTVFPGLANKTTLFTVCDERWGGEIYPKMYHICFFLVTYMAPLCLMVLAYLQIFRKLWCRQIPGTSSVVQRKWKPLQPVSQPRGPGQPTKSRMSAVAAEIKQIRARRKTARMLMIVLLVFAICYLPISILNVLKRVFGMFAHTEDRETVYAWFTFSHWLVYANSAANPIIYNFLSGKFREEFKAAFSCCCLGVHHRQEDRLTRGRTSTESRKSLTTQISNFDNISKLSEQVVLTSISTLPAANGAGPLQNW
human orexin 1 receptor, sequence (O43613 whole entry): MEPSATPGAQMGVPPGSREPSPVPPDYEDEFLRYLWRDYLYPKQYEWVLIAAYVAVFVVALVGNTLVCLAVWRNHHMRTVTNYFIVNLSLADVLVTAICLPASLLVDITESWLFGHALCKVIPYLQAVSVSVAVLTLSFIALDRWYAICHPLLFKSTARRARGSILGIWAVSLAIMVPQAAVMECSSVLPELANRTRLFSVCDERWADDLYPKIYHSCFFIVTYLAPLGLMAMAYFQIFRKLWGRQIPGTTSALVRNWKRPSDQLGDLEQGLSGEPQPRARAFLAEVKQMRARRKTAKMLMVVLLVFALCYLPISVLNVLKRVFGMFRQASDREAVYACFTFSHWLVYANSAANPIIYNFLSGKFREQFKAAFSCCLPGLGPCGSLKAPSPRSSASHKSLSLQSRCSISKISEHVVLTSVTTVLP

Regarding `Cc1cc(C)nc(OCC2CC3CCC2N3C(=O)c2cc(F)ccc2-c2ncccn2)n1` (racemic) [Example 44, (±)-(2-(((4,6-dimethylpyrimidin-2-yl)oxy)methyl)-7-azabicyclo[2.2.1]heptan-7-yl)(5-fluoro-2-(pyrimidin-2-yl)phenyl)methanone], the Ki amounted to 0.104 µM in assay [1] (setting [3]) and 0.4 µM in assay [2] (hOX1 Ki (nm)).

For the compound `O=C(c1ccccc1-n1nccn1)N1C2CCC1C(Nc1cnc(C(F)(F)F)cn1)C2` (racemic) [Example 182, (±)-((2-(2H-1,2,3-triazol-2-yl)phenyl)(2-((5-(trifluoromethyl)pyrazin-2-yl)amino)-7-azabicyclo[2.2.1]heptan-7-yl)methanone], the figures for the Ki in assay [1] (hOX2 Ki (nm)) and in assay [2] (hOX1 Ki (nm)) were 1.1 µM and 0.038 µM, respectively.

As for `Cc1ccc(OCC2CC3CCC2N3C(=O)c2ccc(C)nc2-n2ccnn2)nc1` (racemic) [Example 136, (±)-(6-methyl-2-(1H-1,2,3-triazol-1-yl)pyridin-3-yl)(2-(((5-methylpyridin-2-yl)oxy)methyl)-7-azabicyclo[2.2.1]heptan-7-yl)methanone], the values for the Ki in assay [1] (setting [3]) and in assay [2] (hOX1 Ki (nm)) were 1.2 µM and 6.8 µM, respectively.

For the compound `Cc1ccc(-n2nccn2)c(C(=O)N2C3CCC2C(COc2cccc(C(F)(F)F)n2)C3)c1` (racemic) [Example 16, (±)-(5-methyl-2-(2H-1,2,3-triazol-2-yl)phenyl)(2-(((6-(trifluoromethyl)pyridin-2-yl)oxy)methyl)-7-azabicyclo[2.2.1]heptan-7-yl)methanone], the Ki in assay [1] (setting [3]) is 0.042 µM; in assay [2] (setting [4]), 0.02 µM.

In the case of `Cc1ccc(-n2nccn2)c(C(=O)N2C3CCC2C(COc2ccc(C(F)(F)F)cn2)C3)c1` (racemic) [Example 14, (±)-(5-methyl-2-(2H-1,2,3-triazol-2-yl)phenyl)(2-(((5-(trifluoromethyl)pyridin-2-yl)oxy)methyl)-7-azabicyclo[2.2.1]heptan-7-yl)methanone], the inhibition constant (Ki) in assay [1] (setting [3]) amounted to 0.071 µM; in assay [2] (hOX1 Ki (nm)), 0.05 µM.

For the compound `O=C(c1ccccc1-n1cccn1)N1C2CCC1C(COc1ccc(F)cn1)C2` (racemic) [Example 26, (±)-2-(1H-pyrazol-1-yl)phenyl)(2-(((5-fluoropyridin-2-yl)oxy)methyl)-7-azabicyclo[2.2.1]heptan-7-yl)methanone], the results for the Ki in assay [1] (setting [3]) and in assay [2] (setting [4]) were 0.394 µM and 0.117 µM, respectively.

Turning to `Cc1ccc(C(=O)N2C3CCC2C(COc2ccccn2)C3)c(-n2ccnn2)n1` (racemic) [Example 130, (±)-(6-methyl-2-(1H-1,2,3-triazol-1-yl)pyridin-3-yl)(2-((pyridin-2-yloxy)methyl)-7-azabicyclo[2.2.1]heptan-7-yl)methanone], the Ki in assay [1] (setting [3]) came out at 7.2 µM; in assay [2] (setting [4]), 3.7 µM.

Take `O=C(c1ccccc1-c1cccs1)N1[C@@H]2CC[C@H]1[C@H](COc1ccc(F)cn1)C2` (single isomer, unassigned) [Example 12A, ((1S*,2R*,4R*)-2-(((5-fluoropyridin-2-yl)oxy)methyl)-7-azabicyclo[2.2.1]heptan-7-yl)(2-(thiophen-2-yl)phenyl)methanone]: the Ki stood at 0.339 µM in assay [1] (hOX2 Ki (nm)) and 0.177 µM in assay [2] (hOX1 Ki (nm)).

Take `Cc1cccc(OCC2CC3CCC2N3C(=O)c2ccc(C)nc2-n2nccn2)n1` (racemic) [Example 139, (±)-(6-methyl-2-(2H-1,2,3-triazol-2-yl)pyridin-3-yl)(2-(((6-methylpyridin-2-yl)oxy)methyl)-7-azabicyclo[2.2.1]heptan-7-yl)methanone]: the values for the Ki in assay [1] (setting [3]) and in assay [2] (setting [4]) were 6.5 µM and 4.4 µM, respectively.

`Cc1cc(C)nc(NCC2CC3CCC2N3C(=O)c2cc(F)ccc2-n2nccn2)n1` (racemic) [Example 170, (±)-(2-(((4,6-dimethylpyrimidin-2-yl)amino)methyl)-7-azabicyclo[2.2.1]heptan-7-yl)(5-fluoro-2-(2H-1,2,3-triazol-2-yl)phenyl)methanone]: the results for the Ki in assay [1] (hOX2 Ki (nm)) and in assay [2] (setting [4]) were 0.512 µM and 1.96 µM, respectively.

`Cc1ccc(-n2nccn2)c(C(=O)N2C3CCC2C(COc2ncccc2C(F)(F)F)C3)c1` (racemic) [Example 15, (±)-(5-methyl-2-(2H-1,2,3-triazol-2-yl)phenyl)(2-(((3-(trifluoromethyl)pyridin-2-yl)oxy)methyl)-7-azabicyclo[2.2.1]heptan-7-yl)methanone]: the results for the inhibition constant (Ki) in assay [1] (setting [3]) and in assay [2] (hOX1 Ki (nm)) were 0.12 µM and 0.056 µM, respectively.

With `Cc1ccc(-n2nccn2)c(C(=O)N2C3CCC2C(COc2cccc(C)n2)C3)c1` (racemic) [Example 18, (±)-(5-methyl-2-(2H-1,2,3-triazol-2-yl)phenyl)(2-(((6-methylpyridin-2-yl)oxy)methyl)-7-azabicyclo[2.2.1]heptan-7-yl)methanone], the inhibition constant Ki in assay [1] (setting [3]) stood at 0.044 µM; in assay [2] (setting [4]) it was 0.012 µM.

In the case of `O=C(c1cc(F)ccc1-n1nccn1)N1C2CCC1C(COc1ccc(F)cn1)C2` (racemic) [Example 30, (±)-(5-fluoro-2-(2H-1,2,3-triazol-2-yl)phenyl)(2-(((5-fluoropyridin-2-yl)oxy)methyl)-7-azabicyclo[2.2.1]heptan-7-yl)methanone], the figures for the Ki in assay [1] (setting [3]) and in assay [2] (setting [4]) were 0.149 µM and 0.047 µM, respectively.

On to `Cc1ccc(C(=O)N2C3CCC2C(COc2cnc4ccccc4n2)C3)c(-n2ccnn2)n1` (racemic) [Example 148, (±)-(6-methyl-2-(1H-1,2,3-triazol-1-yl)pyridin-3-yl)(2-((quinoxalin-2-yloxy)methyl)-7-azabicyclo[2.2.1]heptan-7-yl)methanone], for which the inhibitory constant (Ki) in assay [1] (setting [3]) is 3.2 µM; in assay [2] (setting [4]) it was 6.3 µM.

Consider `Cc1cc(C)nc(NC2CC3CCC2N3C(=O)c2c(F)cccc2-n2nccn2)n1` (racemic) [Example 198, (±)-(2-((4,6-dimethylpyrimidin-2-yl)amino)-7-azabicyclo[2.2.1]heptan-7-yl)(2-fluoro-6-(2H-1,2,3-triazol-2-yl)phenyl)methanone], for which the Ki in assay [1] (setting [3]) worked out at 0.704 µM; in assay [2] (hOX1 Ki (nm)), 1.41 µM.

As to `Cc1cc(C)nc(NC2CC3CCC2N3C(=O)c2ccc(F)cc2-n2nccn2)n1` (racemic) [Example 199, (±)-(2-((4,6-dimethylpyrimidin-2-yl)amino)-7-azabicyclo[2.2.1]heptan-7-yl)(4-fluoro-2-(2H-1,2,3-triazol-2-yl)phenyl)methanone], the inhibition constant Ki in assay [1] (setting [3]) was found to be 0.553 µM; in assay [2] (setting [4]), 1.63 µM.

`Cc1ccc(-c2ncccn2)c(C(=O)N2C3CCC2C(COc2nc(C)cc(C)n2)C3)c1` (racemic) [Example 45, (±)-(2-(((4,6-dimethylpyrimidin-2-yl)oxy)methyl)-7-azabicyclo[2.2.1]heptan-7-yl)(5-methyl-2-(pyrimidin-2-yl)phenyl)methanone]: the inhibition constant (Ki) is 0.059 µM in assay [1] (setting [3]) and 0.079 µM in assay [2] (setting [4]).

As for `Cc1noc(-c2c(F)cccc2C(=O)N2[C@@H]3CC[C@H]2[C@H](Nc2cnc(C(F)(F)F)cn2)C3)n1` [Example 254, (3-fluoro-2-(3-methyl-1,2,4-oxadiazol-5-yl)phenyl)((1S,2R,4R)-2-((5-(trifluoromethyl)pyrazin-2-yl)amino)-7-azabicyclo[2.2.1]heptan-7-yl)methanone], the Ki is 0.377 µM in assay [1] (setting [3]) and 0.02 µM in assay [2] (read-out: hOX1 Ki (nm)).

Regarding `Cc1ccc2ccccc2c1C(=O)N1C2CCC1C(COc1ccc(F)cn1)C2` (racemic) [Example 25, (±)-2-(((5-fluoropyridin-2-yl)oxy)methyl)-7-azabicyclo[2.2.1]heptan-7-yl)(2-methylnaphthalen-1-yl)methanone], the figures for the inhibition constant (Ki) in assay [1] (hOX2 Ki (nm)) and in assay [2] (hOX1 Ki (nm)) were 0.16 µM and 0.074 µM, respectively.

`Cc1noc(-c2ccccc2C(=O)N2C3CCC2C(COc2cnc4ccccc4n2)C3)n1` (racemic) [Example 149, (±)-(2-(3-methyl-1,2,4-oxadiazol-5-yl)phenyl)(2-((quinoxalin-2-yloxy)methyl)-7-azabicyclo[2.2.1]heptan-7-yl)methanone]: the inhibition constant (Ki) in assay [1] (setting [3]) turned out to be 2 µM; in assay [2] (setting [4]), 0.22 µM.

Consider `O=C(c1occc1-c1ccccc1)N1C2CCC1C(COc1ccc(F)cn1)C2` (racemic) [Example 27, (±)-2-(((5-fluoropyridin-2-yl)oxy)methyl)-7-azabicyclo[2.2.1]heptan-7-yl)(3-phenylfuran-2-yl)methanone], for which the Ki in assay [1] (hOX2 Ki (nm)) was determined as 0.38 µM; in assay [2] (setting [4]), 0.677 µM.

As to `Cc1cc(C)nc(OCC2CC3CCC2N3C(=O)c2cccc(F)c2-n2nccn2)n1` (racemic) [Example 154, (±)-(2-(((4,6-dimethylpyrimidin-2-yl)oxy)methyl)-7-azabicyclo[2.2.1]heptan-7-yl)(3-fluoro-2-(2H-1,2,3-triazol-2-yl)phenyl)methanone], the Ki in assay [1] (hOX2 Ki (nm)) amounted to 0.3 µM; in assay [2] (setting [4]) it was 0.69 µM.

`Cc1ccc(C(=O)N2C3CCC2C(COc2ccccn2)C3)c(-n2nccn2)n1` (racemic) [Example 128, (±)-(6-methyl-2-(2H-1,2,3-triazol-2-yl)pyridin-3-yl)(2-((pyridin-2-yloxy)methyl)-7-azabicyclo[2.2.1]heptan-7-yl)methanone]: the values for the Ki in assay [1] (setting [3]) and in assay [2] (setting [4]) were ≥ 10 µM and 5.7 µM, respectively.

Take `Cc1cc(C)nc(OCC2CC3CCC2N3C(=O)c2c(F)cccc2-c2ncccn2)n1` (racemic) [Example 43, (±)-(2-(((4,6-dimethylpyrimidin-2-yl)oxy)methyl)-7-azabicyclo[2.2.1]heptan-7-yl)(2-fluoro-6-(pyrimidin-2-yl)phenyl)methanone]: the figures for the Ki in assay [1] (setting [3]) and in assay [2] (setting [4]) were 0.092 µM and 0.222 µM, respectively.

Consider `CCOc1ccc2ccccc2c1C(=O)N1C2CCC1C(COc1ccc(F)cn1)C2` (racemic) [Example 28, (±)-(2-ethoxynaphthalen-1-yl)(2-(((5-fluoropyridin-2-yl)oxy)methyl)-7-azabicyclo[2.2.1]heptan-7-yl)methanone], for which the inhibitory constant (Ki) in assay [1] (setting [3]) was 0.011 µM; in assay [2] (setting [4]) it was 0.014 µM.

For `O=C(c1cccc(F)c1-n1nccn1)N1C2CCC1C(COc1ccccn1)C2` (racemic) [Example 129, (±)-(3-fluoro-2-(2H-1,2,3-triazol-2-yl)phenyl)(2-((pyridin-2-yloxy)methyl)-7-azabicyclo[2.2.1]heptan-7-yl)methanone], the inhibition constant (Ki) in assay [1] (setting [3]) came out at 1 µM; in assay [2] (setting [4]) it was 0.19 µM.
